The values that follow come from patent publication US20220031684A1, “PROPHYLACTIC EFFICACY OF SEROTONIN 4 RECEPTOR AGONISTS AGAINST STRESS” (THE TRUSTEES OF COLUMBIA UNIVERSITY IN THE CITY OF NEW YORK, priority 2019, published 2022).

Where a name gives a salt, the structure may show the parent alone.

Assay [1] has as its system BALB/cJRj mice. As to the kind of experiment: Splash Test after single dose. The settings on record: single systemic dose 1.5 mg/kg, 45 minutes before test. In kind it is in vivo. The procedure: Having shown that RS 67333 was provided with prophylactic properties, we subsequently sought to gain knowledge of this molecule in the long term, i.e. to find out whether the anxiolytic response brought about by RS 67333 is sustainable over time. In order to achieve this, the BALB/cJRj mice were systemically injected with a single dose of RS 67333 (1.5 mg/kg) or diazepam (1.5 mg/kg), 45 minutes before performing the Splash Test. The following day, the mice underwent the EPM without having received another dose of RS, and then at the open field 24 hours later, and, finally, to NSF 24 hours after the open field (FIG. 15A).

Assay [2] deals with BALB/cJRj mice. As to the kind of experiment: OF with optogenetic inhibition of mPFC terminals in the DRN (CaMKII-ArchT). In kind it is in vivo. The settings on record: intra-mPFC RS67333 0.5 pg/side or diazepam 1.5 pg/side; for inhibition of the drug-induced increase in center time (OF) during 3-min green light illumination: light ON. An excerpt:
Motor activity was quantified in four 39×39 cm perpex plastic open field boxes (Vivo-tech/Ugo Basile, Salon de Provence, France). The apparatus was illuminated from the ground with special designed 40×40 cm Infra-red backlights (monochromatic wavelength 850 nm high homogeneity, Vivo-tech, Salon de Provence, France). Activity chambers were monitored by four black and white cameras with varifocal optics and polarizing filters (Vivo-tech, Salon de Provence, France). For optogenetic experiments, optical bandpass filters were specifically selected to improve tracking detection. The whole set-up was controlled using ANYMAZE version 6 video tracking software (Stoelting Co/Vivo-tech, Salon de Provence, France). Dependent measures were time in the center over a 10 min for systemic administration or 6 min test period for optogenetic experiments, total ambulatory distance and ambulatory distance traveled in the center divided by total distance.
To target opsin expression selectively to cortical glutamatergic terminals in the DRN, AAV5-CaMKIIα-ChR2-enhanced yellow fluorescent protein (eYFP), AAV5-CaMKII-ArchT-green fluorescent protein (GFP) or AAV5-CaMKII-eYFP, obtained from Karl Deisseroth and Ed Boyden (UNC Vector Core, NC, USA) were bilaterally injected into the mPFC (in mm from bregma, A=+2.10, L=±0.50, V=−2.60). Mice injected with AAV5-CamKII-eYFP were used as control.
BALB/cJRj mice were surgically implanted with fiber optics targeted to the DRN (in mm from bregma, A=−4.50, L=+1.20, V=−4.0, angle 15°). A […] core, 0.37 NA fiber optic (ThorLabs, ˜10-12 and 15-16 mW for ChR2 and Arch-T, respectively, at the tip of optic) was used for optical stimulation via a patch cable connected to either a 473 or 532 nm laser diode (OEM laser systems, USA) as previously described (A-S15). For behavioral experiments, AAV5-CaMKIIα-ChR2-eYFP mice and their controls received a 10 Hz stimulation, 20 ms pulses, over a 3-minute period whereas a green light was delivered continuously to AAV5-CaMKII-ArchT-GFP throughout the 3 min testing period. Similar doses of RS67333 (locally in the mPFC at […] or at 1.5 mg/kg, i.p.) and diazepam (locally in the mPFC at […] or at 1.5 mg/kg, i.p.) were infused in the mPFC or administered i.p. The stimulation or the inhibition of mPFC projections in the DRN occurred simultaneously to the behavioral paradigms.

Assay [3] addresses sigma 2 (Homo sapiens, UniProt Q5BJF2). The settings on record: cited from earlier work.
Assay [4] has as its system BALB/cJRj mice. The experiment in a line: Novelty suppressed feeding (NSF), acute anxiolytic-like effect. In kind it is in vivo. The settings on record: for lag for feeding in the NSF: single dose 1.5 mg/kg, 72 hours after the injection. Here is the method: RS67333 (1.5 mg/kg, i.p.), diazepam (1.5 mg/kg, i.p.), fluoxetine (18 mg/kg, i.p.) were injected 45 min before testing in the Elevated Plus Maze (EPM), the Novelty Suppressed Feeding (NSF) or the Open Field (OF) in three independent cohorts of male BALB/cJRj mice.
To ensure the selectivity of the anxiolytic-like effects of RS67333, in a new cohort of male BALB/cJRj mice, GR125487 (1.0 mg/kg, i.p.) dissolved in 0.9% NaCl solution, was injected 15 minutes before RS67333 administration (1.5 mg/kg, i.p.). EPM or NSF occurred 45 min after RS67333 administration (A-S1). Behavioral consequences of the co-administration of GR125487+RS67333 were compared to RS67333 alone, diazepam (1.5 mg/kg, i.p.) fluoxetine (18 mg/kg, i.p.) and vehicle groups (0.9% saline solution, i.p.).
For mPFC drug infusion, two bilateral cannulae (75 μm-diameter silica capillary tubing inserted in 27G stainless steel catheter) were implanted in the mPFC [stereotaxic coordinates in mm from bregma: A=+2.10, L=±0.50, V=−2.60, A, anterior; L, lateral; and V, ventral, according to (A-S10)] under anesthesia (chloral hydrate, 400 mg/kg, i.p.). […] Diazepam (1.5 mg/kg) was used as a positive control.
The NSF is a conflict test that elicits competing motivations: the drive to eat and the fear of venturing into the center of a brightly lit arena. The latency to begin eating is used as an index of anxiety/depression-like behavior, because classical anxiolytic drugs as well as chronic antidepressants decrease this measure. The NSF test was carried out during a 10 min period as previously described (A-S12). Briefly, the testing apparatus consisted of a plastic box (50×50×20 cm), the floor of which was covered with approximately 2 cm of wooden bedding. Twenty-four hours prior to behavioral testing, all food was removed from the home cage. At the time of testing, a single pellet of food (regular chow) was placed on a white paper platform positioned in the center of the box. Each animal was placed in a corner of the box, and a stopwatch was immediately started. The latency to eat (defined as the mouse sitting on its haunches and biting the pellet with the use of forepaws) was timed. Immediately afterwards, the animal was transferred to its home cage, and the amount of food consumed by the mouse in the subsequent 5 min was measured, serving as a control for change in appetite as a possible confounding factor.

Chain of sigma 2 (Q5BJF2 whole entry): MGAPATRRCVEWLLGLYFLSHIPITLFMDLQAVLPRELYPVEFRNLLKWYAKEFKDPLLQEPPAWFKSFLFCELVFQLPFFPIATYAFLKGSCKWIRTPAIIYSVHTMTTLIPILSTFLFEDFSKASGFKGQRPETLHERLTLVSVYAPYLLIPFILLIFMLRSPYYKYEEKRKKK

As to `CCCCN1CCC(CCC(=O)c2cc(Cl)c(N)cc2OC)CC1.Cl` [RS-67,333, 1-(4-amino-5-chloro-2-methoxyphenyl)-3-[1(n-butyl)-4-piperidinyl]-1-propanone HCl], in assay [1], the “grooming time (Splash Test)” value is on record as “increased the grooming time” and the “number of grooming episodes (Splash Test)” value is on record as “without affecting the number of episodes”. Further, in assay [2], the “time spent in the center (OF), light OFF” value is listed as “increased significantly the time spent in the center” and the “inhibition of the drug-induced increase in center time (OF) during 3-min green light illumination” value turned out to be 85±20%. The “pKi sigma 2” value in assay [3] is 8.0. In assay [4] (intra-mPFC infusion of RS67333 45 min before testing), the “latency to feed (NSF) vs vehicle” value was “decreased latency to feed”. Moreover, the “latency to feed (NSF) vs vehicle” value in assay [4] (male BALB/cJRj, i.p. 45 min before testing, RS67333 1.5, diazepam 1.5, fluoxetine 18 mg/kg) is listed as “decreased the latency to feed”. Besides, the “lag for feeding in the NSF” value in assay [4] is “reduced the lag for feeding”.

For the compound `CN1C(=O)CN=C(c2ccccc2)c2cc(Cl)ccc21` [diazepam, Diazepam hydrochloride], the “grooming time (Splash Test)” value in assay [1] is reported as “not identify any effect in the Splash Test”. In assay [2], the “time spent in the center (OF), light OFF” value is “increased significantly the time spent in the center” and the “inhibition of the drug-induced increase in center time (OF) during 3-min green light illumination” value is given as 80±22%. The “latency to feed (NSF) vs vehicle” value in assay [4] (male BALB/cJRj, i.p. 45 min before testing, RS67333 1.5, diazepam 1.5, fluoxetine 18 mg/kg, hydrochloride) is on record as “decreased the latency to feed”. In addition, in assay [4], the “lag for feeding in the NSF” value was “have not been able to observe any long-term activity”.
